Key:
[1] = Determination of the microsomal half-life / microsomal clearance; format: in vitro ADME; details: human liver microsomes, 0.5 μM test substance, 0.25 mg microsomal protein/ml, pH 7.4, 37° C.
Description: The metabolic stability of the compounds of the invention was determined in the following assay.
The test substances were incubated in a concentration of 0.5 μM as follows:
0.5 μM test substance are preincubated together with liver microsomes from different species (from rat, human or other species) (0.25 mg of microsomal protein/ml) in 0.05 M potassium phosphate buffer of pH 7.4 in microtiter plates at 37° C. for 5 min. The reaction is started by adding NADPH (1 mg/mL). After 0, 5, 10, 15, 20 and 30 min, 50 μl aliquots are removed, and the reaction is immediately stopped and cooled with the same volume of acetonitrile. The samples are frozen until analyzed. The remaining concentration of undegraded test substance is determined by MSMS. The half-life (T1/2) is determined from the gradient of the signal of test substance/unit time plot, it being possible to calculate the half-life of the test substance, assuming first order kinetics, from the decrease in the concentration of the compound with time. The microsomal clearance (mCl) is calculated from mCl=1n2/T1/2/(content of microsomal protein in mg/ml)×1000 [[…]] (modified from references: Di, The Society for Biomoleculur Screening, 2003, 453-462; Obach, DMD, 1999 vol 27. N 11, 1350-1359).

[2] = target: T1, human dopamine D2L receptors (long isoform) (Homo sapiens, UniProt P14416); experiment: Dopamine D2L receptor binding, [125I]-iodospiperone displacement; details: selectivity ratio Ki (D2L)/Ki (D3)
T1 construct: expressed in transfected cells; host or cells: HEK-293
Description: (§1) The substance to be tested was either dissolved in methanol/Chremophor® (BASF SE) or in dimethyl sulfoxide and then diluted with water to the desired concentration.
(§2) Each assay mixture was run in triplicate. • The incubation buffer contained 50 mM tris, 120 mM NaCl, 5 mM KCl, 2 mM CaCl2, 2 mM MgCl2 and 0.1% bovine serum albumin, 10 μM quinolone and 0.1% ascorbic acid (prepared fresh daily). […] Each assay mixture was run in triplicate. • The incubation buffer contained 50 mM tris, 120 mM NaCl, 5 mM KCl, 2 mM CaCl2, 2 mM MgCl2 and 0.1% bovine serum albumin. The buffer was adjusted to pH 7.4 with HCl. c) Measurement and Analysis: • After having been incubated at 25° C. for 60 minutes, the assay mixtures were filtered through a Whatman GF/B glass fiber filter under vacuum using a cell collecting device. The filters were transferred to scintillation viols using a filter transfer system. After 4 ml of Ultima Gold® (Packard) have been added, the samples were shaken for one hour and the radioactivity was then counted in a Beta-Counter (Packard, Tricarb 2000 or 2200CA).

[3] = target: T2, human dopamine D3 receptors (Homo sapiens, UniProt P35462); experiment: Dopamine D3 receptor binding, [125I]-iodosulpride displacement; details: membranes of HEK-293 cells with human D3 receptors, 0.1 nM [125I]-iodosulpride
T2 construct: expressed in transfected cells; host or cells: HEK-293
Description: as §1, §2

[4] = target: T3, hERG cardiac K+ channel (Homo sapiens, UniProt Q12809); experiment: Blocking the hERG channel, [3H]dofetilide displacement; format: binding; details: membrane homogenate of HEK 293 cells with hERG K+ channels
T3 construct: expressed in transfected cells; host or cells: HEK-293
Description: The binding affinity of test drugs for the hERG cardiac K^+ channel was determined by their ability to displace tritiated dofetilide (a class III antiarrhythmic drug and potent hERG blocker) in membrane homogenates from HEK-293 cells heterogeneously expressing the hERG channel. The assay was performed as previously described G. J. Diaz et al., Journal of Pharmacological and Toxicological Methods, 50 (2004), 187-199). For this, drug dilutions were prepared from 10 mM DMSO stocks and the following were added to a 96-well polystyrene plate (Perkin-Elmer Optiplate): 20 μl of assay binding buffer (for total bounds), or […] astemizole (for non-specific bounds), or test drug, 50 μl of [^3H]dofetilide (20 nM, ˜80 Ci/mmol specific activity), and 130 μl of membrane homogenate from HEK 293 cells stably transfected with hERG K^+ channels (final protein concentration of 30 μg per well). The plates were incubated at ambient temperature for […], aspirated onto GF/B filter plates (Perkin-Elmer), and washed with 2 ml of cold wash buffer. After allowing the plates to dry, 50 μl of scintillant (Perkin-Elmer MicroScint 20) were added to each well and the radioactivity was counted in a Perkin-Elmer Topcount NXT scintillation counter. […]

T1 sequence (P14416 whole entry, canonical isoform): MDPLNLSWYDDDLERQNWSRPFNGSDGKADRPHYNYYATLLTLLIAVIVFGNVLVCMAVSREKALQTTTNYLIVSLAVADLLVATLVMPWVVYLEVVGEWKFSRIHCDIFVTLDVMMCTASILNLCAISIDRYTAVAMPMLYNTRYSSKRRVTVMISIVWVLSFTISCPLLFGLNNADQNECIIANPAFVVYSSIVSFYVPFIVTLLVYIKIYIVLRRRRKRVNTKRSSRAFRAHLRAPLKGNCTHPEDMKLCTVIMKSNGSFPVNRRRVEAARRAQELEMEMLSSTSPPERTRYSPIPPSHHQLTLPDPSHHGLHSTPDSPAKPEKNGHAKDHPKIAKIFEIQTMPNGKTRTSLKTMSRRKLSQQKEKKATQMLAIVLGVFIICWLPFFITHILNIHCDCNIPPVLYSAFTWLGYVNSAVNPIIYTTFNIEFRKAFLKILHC
T2 sequence (P35462 whole entry): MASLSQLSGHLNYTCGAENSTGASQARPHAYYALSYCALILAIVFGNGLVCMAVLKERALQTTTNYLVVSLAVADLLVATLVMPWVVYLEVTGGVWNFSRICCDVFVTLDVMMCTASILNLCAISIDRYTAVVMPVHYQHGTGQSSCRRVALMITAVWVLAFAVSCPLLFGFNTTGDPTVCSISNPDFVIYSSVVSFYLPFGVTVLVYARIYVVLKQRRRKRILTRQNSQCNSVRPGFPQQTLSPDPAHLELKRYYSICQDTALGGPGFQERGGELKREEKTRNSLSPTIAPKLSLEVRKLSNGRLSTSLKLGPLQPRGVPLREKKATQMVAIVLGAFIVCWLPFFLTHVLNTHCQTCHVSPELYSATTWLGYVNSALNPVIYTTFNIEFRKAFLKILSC
T3 sequence (Q12809 whole entry): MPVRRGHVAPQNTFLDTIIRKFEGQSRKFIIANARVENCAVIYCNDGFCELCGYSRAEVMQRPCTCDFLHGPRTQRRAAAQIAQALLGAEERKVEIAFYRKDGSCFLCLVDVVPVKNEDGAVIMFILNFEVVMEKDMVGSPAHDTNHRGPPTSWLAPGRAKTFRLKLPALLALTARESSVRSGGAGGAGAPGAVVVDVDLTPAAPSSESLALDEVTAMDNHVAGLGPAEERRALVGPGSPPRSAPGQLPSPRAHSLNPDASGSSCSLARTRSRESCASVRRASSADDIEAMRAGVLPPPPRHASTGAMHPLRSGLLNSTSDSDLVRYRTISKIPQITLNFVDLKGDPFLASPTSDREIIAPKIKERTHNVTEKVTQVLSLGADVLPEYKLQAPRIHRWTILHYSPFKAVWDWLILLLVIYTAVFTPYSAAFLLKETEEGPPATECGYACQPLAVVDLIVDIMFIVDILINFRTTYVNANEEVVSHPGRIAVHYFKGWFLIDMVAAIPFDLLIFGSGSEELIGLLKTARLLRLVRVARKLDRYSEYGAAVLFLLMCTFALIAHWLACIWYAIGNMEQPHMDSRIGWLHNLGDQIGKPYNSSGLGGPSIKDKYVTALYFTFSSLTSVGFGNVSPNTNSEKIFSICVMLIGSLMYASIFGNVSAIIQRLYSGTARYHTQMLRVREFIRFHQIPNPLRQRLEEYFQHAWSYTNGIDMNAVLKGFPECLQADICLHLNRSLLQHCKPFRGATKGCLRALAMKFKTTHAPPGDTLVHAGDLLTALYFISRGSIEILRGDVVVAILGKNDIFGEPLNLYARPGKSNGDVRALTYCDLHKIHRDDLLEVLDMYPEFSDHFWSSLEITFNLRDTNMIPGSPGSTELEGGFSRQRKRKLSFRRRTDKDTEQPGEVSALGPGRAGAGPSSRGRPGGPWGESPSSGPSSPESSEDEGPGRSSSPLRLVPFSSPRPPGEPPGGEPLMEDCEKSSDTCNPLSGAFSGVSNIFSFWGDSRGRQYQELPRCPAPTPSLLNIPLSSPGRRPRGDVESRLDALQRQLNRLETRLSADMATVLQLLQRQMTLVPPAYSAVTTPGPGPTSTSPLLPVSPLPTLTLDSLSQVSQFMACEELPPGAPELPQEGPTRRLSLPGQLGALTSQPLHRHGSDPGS

| Human mCl [1] | D2/D3, Ki (D2L)/Ki (D3) [2] | Ki [3] [nM] | Structure (SMILES) | IC50 [4] [nM] |
| --- | --- | --- | --- | --- |
| + (+: 20-120 μl min^−1 mg^−1) | +++ (+++>50) | < 50 | CC(C)(C)c1nc(N2CCN(CC[C@H]3CC[C@@H](NC(=O)[C@H]4CC[C@H](O)CC4)CC3)CC2)cc(C(F)(F)F)n1 [Compound 23, Trans-N-[cis-4-[2-[4-[2-tert-butyl-6-(trifluoromethyl)pyrimidin-4-yl]piperazin-1-yl]ethyl]cyclohexyl]-4-hydroxy-cyclohexanecarboxamide] |  |
| + (+: 20-120 μl min^−1 mg^−1) | +++ (+++>50) | < 50 | CC(C)(C)c1cc(N2CCN(CC[C@H]3CC[C@@H](NC(=O)[C@H]4CC[C@H](O)CC4)CC3)CC2)nc(C(C)(C)C)n1 [Compound 22, trans-N-[cis-4-[2-[4-(2,6-ditert-butylpyrimidin-4-yl)piperazin-1-yl]ethyl]cyclohexyl]-4-hydroxy-cyclohexanecarboxamide] |  |
| ∘ (∘: >120 μl min^−1 mg^−1) | +++ (+++>50) | < 10 | COCCc1cc(N2CCN(CC[C@H]3CC[C@@H](NC(=O)[C@H]4C[C@@H](O)C4)CC3)CC2)nc(C(C)(C)C)n1 [Compound 17, cis-N-[cis-4-[2-[4-[2-tert-butyl-6-(2-methoxyethyl)pyrimidin-4-yl]piperazin-1-yl]ethyl]cyclohexyl]-3-hydroxy-cyclobutanecarboxamide] |  |
| ∘ (∘: >120 μl min^−1 mg^−1) | ++ (++>20) | < 50 | COCCc1cc(N2CCN(CC[C@H]3CC[C@@H](NC(=O)[C@H]4CC[C@@H](O)CC4)CC3)CC2)nc(C(C)(C)C)n1 [Compound 5, Cis-N-[cis-4-[2-[4-[2-tert-butyl-6-(2-methoxyethyl)pyrimidin-4-yl]piperazin-1-yl]ethyl]cyclohexyl]-4-hydroxy-cyclohexanecarboxamide] |  |
| + (+: 20-120 μl min^−1 mg^−1) | +++ (+++>50) | < 10 | COCc1cc(N2CCN(CC[C@H]3CC[C@H](NC(=O)[C@H]4CC[C@H](O)CC4)CC3)CC2)nc(C(C)(C)C)n1 [Compound 37, trans-N-[trans-4-[2-[4-[2-tert-butyl-6-(methoxymethyl)pyrimidin-4-yl]piperazin-1-yl]ethyl]cyclohexyl]-4-hydroxy-cyclohexanecarboxamide] |  |
| + (+: 20-120 μl min^−1 mg^−1) | ++ (++>20) | < 10 | CC(C)c1cc(N2CCN(CCC3CCC(NC(=O)C4CCC(O)CC4)CC3)CC2)nc(C(C)(C)C)n1 (stereo not shown) [Compound 31, N-[4-[2-[4-(2-tert-butyl-6-isopropyl-pyrimidin-4-yl)piperazin-1-yl]ethyl]cyclohexyl]-4-hydroxy-cyclohexanecarboxamide] |  |
| + (+: 20-120 μl min^−1 mg^−1) | ++ (++>20) | < 10 | CC(C)(C)c1nc(C(F)F)cc(N2CCN(CC[C@H]3CC[C@@H](NC(=O)[C@H]4CC[C@H](O)CC4)CC3)CC2)n1 [Compound 30, Trans-N-[cis-4-[2-[4-[2-tert-butyl-6-(difluoromethyl)pyrimidin-4-yl]piperazin-1-yl]ethyl]cyclohexyl]-4-hydroxy-cyclohexanecarboxamide] |  |
| + (+: 20-120 μl min^−1 mg^−1) | ++ (++>20) | < 10 | CC(C)(C)c1nc(N2CCN(CCC3CCC(NC(=O)C4CCC(O)CC4)CC3)CC2)cc(C2(C)CC2)n1 (stereo not shown) [Compound 27, N-[4-[2-[4-[2-tert-butyl-6-(1-methylcyclopropyl)pyrimidin-4-yl]piperazin-1-yl]ethyl]cyclohexyl]-4-hydroxy-cyclohexanecarboxamide] |  |
| + (+: 20-120 μl min^−1 mg^−1) | ++ (++>20) | < 10 | COCCc1cc(N2CCN(CC[C@H]3CC[C@@H](NC(=O)[C@H]4CC[C@H](O)CC4)CC3)CC2)nc(C(C)(C)C)n1 [Compound 3, trans-N-[cis-4-[2-[4-[2-tert-butyl-6-(2-methoxyethyl)pyrimidin-4-yl]piperazin-1-yl]ethyl]cyclohexyl]-4-hydroxy-cyclohexanecarboxamide] |  |
| + (+: 20-120 μl min^−1 mg^−1) | ++ (++>20) | < 10 | CC(C)(C)c1nc(N2CCN(CC[C@H]3CC[C@@H](NC(=O)[C@H]4CC[C@H](O)CC4)CC3)CC2)cc(C2(C)CC2)n1 [Compound 28, Trans-N-[cis-4-[2-[4-[2-tert-butyl-6-(1-methylcyclopropyl)pyrimidin-4-yl]piperazin-1-yl]ethyl]cyclohexyl]-4-hydroxy-cyclohexanecarboxamide] |  |

| Structure (SMILES) | Human mCl [1] | D2/D3, Ki (D2L)/Ki (D3) [2] | Ki [3] [nM] | IC50 [4] [nM] |
| --- | --- | --- | --- | --- |
| CC(C)(C)c1nc(C2CCC2)cc(N2CCN(CC[C@H]3CC[C@@H](NC(=O)[C@H]4CC[C@@H](O)CC4)CC3)CC2)n1.O=C(O)C(F)(F)F [Compound 15, Cis-N-[cis-4-[2-[4-(2-tert-butyl-6-cyclobutyl-pyrimidin-4-yl)piperazin-1-yl]ethyl]cyclohexyl]-4-hydroxy-cyclohexanecarboxamide; 2,2,2-trifluoroacetic acid] | ∘ (∘: >120 μl min^−1 mg^−1) | +++ (+++>50) | < 10 |  |
| CC(C)(C)c1nc(C2CCC2)cc(N2CCN(CC[C@H]3C[C@H](NC(=O)[C@H]4CC[C@@H](O)CC4)C3)CC2)n1.O=C(O)C(F)(F)F [Compound 16, Cis-N-[trans-3-[2-[4-(2-tert-butyl-6-cyclobutyl-pyrimidin-4-yl)piperazin-1-yl]ethyl]cyclobutyl]-4-hydroxy-cyclohexanecarboxamide; 2,2,2-trifluoroacetic acid] | ∘ (∘: >120 μl min^−1 mg^−1) | ++ (++>20) | < 10 |  |
| CC(C)(C)c1nc(C2CCC2)cc(N2CCN(CC[C@H]3CC[C@@H](NC(=O)[C@H]4CC[C@H](O)CC4)CC3)CC2)n1 [Compound 6, trans-N-[cis-4-[2-[4-(2-tert-butyl-6-cyclobutyl-pyrimidin-4-yl)piperazin-1-yl]ethyl]cyclohexyl]-4-hydroxy-cyclohexanecarboxamide] | + (+: 20-120 μl min^−1 mg^−1) | +++ (+++>50) | < 10 |  |
| CC(C)(C)c1nc(C2CCC2)cc(N2CCN(CC[C@H]3C[C@@H](NC(=O)[C@H]4CC[C@H](O)CC4)C3)CC2)n1 [Compound 10, Trans-N-[cis-3-[2-[4-(2-tert-butyl-6-cyclobutyl-pyrimidin-4-yl)piperazin-1-yl]ethyl]cyclobutyl]-4-hydroxy-cyclohexanecarboxamide] | + (+: 20-120 μl min^−1 mg^−1) | +++ (+++>50) | < 10 |  |
| CC(C)(C)c1nc(C2CCC2)cc(N2CCN(CC[C@H]3CC[C@H](NC(=O)[C@H]4CC[C@H](O)CC4)CC3)CC2)n1 [Compound 1, trans-N-[trans-4-[2-[4-(2-tert-butyl-6-cyclobutyl-pyrimidin-4-yl)piperazin-1-yl]ethyl]cyclohexyl]-4-hydroxy-cyclohexanecarboxamide] | + (+: 20-120 μl min^−1 mg^−1) | +++ (+++>50) | < 10 | > 10000 |
